From patent US10647747B2, “Cyclosporin derivatives and uses thereof” (S&T Global Inc., priority 2010, dated 2020)
Where two headings read alike, the source gives them in different places. *1 amine or outer side, *2 acyl side, *3 side chain or, on linkers, in order; H or OH if unused. Where a SMILES comes first, the peptide text is derived from it. [ ]: non-standard residue; d: D form. ξ: configuration not given here. MeBmt = C/C=C/C[C@@H](C)[C@@H](O)[C@H](NC)C(=O)O; X1 = CN([C@H](SCCCN1CCOCC1)C(=O)[*:2])[*:1]; X6 = CCN(CC)CCS[C@H](C(=O)[*:2])N(C)[*:1]; NMeIle(3ξ) = CCC(C)[C@H](NC)C(=O)O; NMeL = CN[C@@H](CC(C)C)C(=O)O; NMeV = CN[C@H](C(=O)O)C(C)C; Abu = CC[C@H](N)C(=O)O

Key:
[1] = tested on: HIV-1IIIB in CEM-SS cells; test: Anti-HIV cytoprotection assay, acute infection model, MTS endpoint; assay type: cell-based; conditions: Table 17, HIV-1IIIB in CEM-SS cells, 6-day incubation, read-out: Antiviral activity EC50
Method: Anti-HIV activity of cyclosporine derivatives were evaluated by cytoprotection assay in an acute infection model using CEM-SS cells and either HIV-1IIIB or HIV-1 RF. Antiviral activity was determined as a reduction in virus-caused cytopathic effects when compounds prevent virus replication. Cytoprotection and compound cytotoxicity were evaluated using the tetrazollium dye MTS (Promega) to calculate cell viability following virus infection after 6-day incubation (Zhou G., et al., 2011, J. Med. Chem. 27, 7220-31; which is incorporated herein by reference).

[2] = Stability testing: epimerization of cyclosporin derivatives in methanol, monitored by HPLC; assay type: physicochemical; conditions: for Epimerization %: Table 10, MeOH at 50° C.; for Epimerization % after 168 hours: Table 11, MeOH at 50° C.-58° C.

Epimerization % ([2]; 29 hours) [%]	Epimerization % ([2]; 77 hours)	Epimerization % ([2]; 125 hours) [%]	Structure (SMILES)	also measured
			Cc1cn([C@H]2C[C@H](N=[N+]=[N-])[C@@H](CO)O2)c(=O)[nH]c1=O [AZT]	EC50 [1]: 9 nM
0	0%	0	C/C=C/C[C@@H](C)[C@@H](O)[C@H]1C(=O)N[C@@H](CC)C(=O)N(C)[C@H](SCCCN2CCOCC2)C(=O)N(C)[C@@H](CC(C)(C)OC)C(=O)N[C@@H](C(C)C)C(=O)N(C)[C@@H](CC(C)C)C(=O)N[C@@H](C)C(=O)N[C@H](C)C(=O)N(C)[C@@H](CC(C)C)C(=O)N(C)[C@@H](CC(C)C)C(=O)N(C)[C@@H](C(C)C)C(=O)N1C [drawing 1937]	
			C/C=C/C[C@@H](C)[C@@H](O)[C@H]1C(=O)N[C@@H](CC)C(=O)N(C)[C@H](SCCCN2CCOCC2)C(=O)N(C)[C@@H](CC(C)(C)OC)C(=O)N[C@@H](C(C)C)C(=O)N(C)[C@@H](CC(C)C)C(=O)N[C@@H](C)C(=O)N[C@H](C)C(=O)N(C)[C@@H](CC(C)C)C(=O)N(C)[C@@H](CC(C)C)C(=O)N(C)[C@@H](C(C)C)C(=O)N1C [drawing 1932]	Epimerization % in MeOH at 65° C. ([2]; Table 9, 2 hours): 0%; Epimerization % in MeOH at 65° C. ([2]; Table 9, 4 hours): 0%; Epimerization % in MeOH at 65° C. ([2]; Table 9, 10 hours): 0%; Epimerization % in MeOH at 65° C. ([2]; Table 9, 22 hours): 0%; Epimerization % in MeOH at 65° C. ([2]; Table 9, 30 hours): 0%; Epimerization % in MeOH at 65° C. ([2]; Table 9, 38 hours): 0%
~26	~32%	~35	C/C=C/C[C@@H](C)[C@@H](O)[C@H]1C(=O)N[C@@H](CC)C(=O)N(C)[C@H](SCCN(C)C)C(=O)N(C)[C@@H](CC(C)C)C(=O)N[C@@H](C(C)C)C(=O)N(C)[C@@H](CC(C)C)C(=O)N[C@@H](C)C(=O)N[C@H](C)C(=O)N(C)[C@@H](CC(C)C)C(=O)N(C)[C@@H](CC(C)C)C(=O)N(C)[C@@H](C(C)C)C(=O)N1C [drawing 1933]	
			C/C=C/C[C@@H](C)[C@@H](O)[C@H]1C(=O)N[C@@H](CC)C(=O)N(C)[C@H](COCCN(CC)CC)C(=O)N(C)[C@@H](CC(C)C)C(=O)N[C@@H](C(C)C)C(=O)N(C)[C@@H](CC(C)C)C(=O)N[C@@H](C)C(=O)N[C@H](C)C(=O)N(C)[C@@H](CC(C)C)C(=O)N(C)[C@@H](CC(C)C)C(=O)N(C)[C@@H](C(C)C)C(=O)N1C	Epimerization % after 168 hours [2]: 0%
0	Less than 1%	~12	C/C=C/C[C@@H](C)[C@@H](O)[C@H]1C(=O)N[C@@H](CC)C(=O)N(C)[C@H](SCCCN(CC)CC)C(=O)N(C)[C@@H](CC(C)(C)O)C(=O)N[C@@H](C(C)C)C(=O)N(C)[C@@H](CC(C)C)C(=O)N[C@@H](C)C(=O)N[C@H](C)C(=O)N(C)[C@@H](CC(C)C)C(=O)N(C)[C@@H](CC(C)C)C(=O)N(C)[C@@H](C(C)C)C(=O)N1C	
0	0%	0	C/C=C/C[C@@H](C)[C@@H](O)[C@H]1C(=O)N[C@@H](CC)C(=O)N(C)[C@H](SCCCN2CCOCC2)C(=O)N(C)[C@@H](C(C)C)C(=O)N[C@@H](C(C)C)C(=O)N(C)[C@@H](CC(C)C)C(=O)N[C@@H](C)C(=O)N[C@H](C)C(=O)N(C)[C@@H](CC(C)C)C(=O)N(C)[C@@H](CC(C)C)C(=O)N(C)[C@@H](C(C)C)C(=O)N1C (cyclo(A[dA][NMeL][NMeL][NMeV][MeBmt][Abu][X1][NMeV]V[NMeL]))	
			C/C=C/C[C@@H](C)[C@@H](O)[C@H]1C(=O)N[C@@H](CC)C(=O)N(C)[C@H](CSCCN(CC)CC)C(=O)N(C)[C@@H](CC(C)(C)O)C(=O)N[C@@H](C(C)C)C(=O)N(C)[C@@H](CC(C)C)C(=O)N[C@@H](C)C(=O)N[C@H](C)C(=O)N(C)[C@@H](CC(C)C)C(=O)N(C)[C@@H](CC(C)C)C(=O)N(C)[C@@H](C(C)C)C(=O)N1C	Epimerization % after 168 hours [2]: 0%
			C/C=C/C[C@@H](C)[C@@H](O)[C@H]1C(=O)N[C@@H](CC)C(=O)N(C)[C@H](CSCCN(C)C)C(=O)N(C)[C@@H](CC(C)(C)O)C(=O)N[C@@H](C(C)C)C(=O)N(C)[C@@H](CC(C)C)C(=O)N[C@@H](C)C(=O)N[C@H](C)C(=O)N(C)[C@@H](CC(C)C)C(=O)N(C)[C@@H](CC(C)C)C(=O)N(C)[C@@H](C(C)C)C(=O)N1C (single isomer, unassigned)	EC50 ([1]; Human immunodeficiency virus 1, 144 h): 118 nM
			C/C=C/C[C@@H](C)[C@@H](O)[C@H]1C(=O)N[C@@H](CC)C(=O)N(C)[C@H](SCCCN2CCOCC2)C(=O)N(C)[C@@H](CC(C)(C)O)C(=O)N[C@@H](C(C)C)C(=O)N(C)[C@@H](CC(C)C)C(=O)N[C@@H](C)C(=O)N[C@H](C)C(=O)N(C)[C@@H](CC(C)C)C(=O)N(C)[C@@H](CC(C)C)C(=O)N(C)[C@@H](C(C)C)C(=O)N1C [drawing 1931]	Epimerization % in MeOH at 65° C. ([2]; Table 8, 2 hours): 0%; Epimerization % in MeOH at 65° C. ([2]; Table 8, 4 hours): 0%; Epimerization % in MeOH at 65° C. ([2]; Table 8, 6 hours): 0%; Epimerization % in MeOH at 65° C. ([2]; Table 8, 8 hours): Less than 1%; Epimerization % in MeOH at 65° C. ([2]; Table 8, 10 hours): ~10%
			C/C=C/C[C@@H](C)[C@@H](O)[C@H]1C(=O)N[C@@H](CC)C(=O)N(C)[C@H](CSCCN(C)C)C(=O)N(C)[C@@H](CC(C)C)C(=O)N[C@@H](C(C)C)C(=O)N(C)[C@@H](CC(C)C)C(=O)N[C@@H](C)C(=O)N[C@H](C)C(=O)N(C)[C@@H](CC(C)C)C(=O)N(C)[C@@H](CC(C)C)C(=O)N(C)[C@@H](C(C)C)C(=O)N1C (single isomer, unassigned)	Epimerization % after 168 hours [2]: 0%
0	0%	0	C/C=C/C[C@@H](C)[C@@H](O)[C@H]1C(=O)N[C@@H](CC)C(=O)N(C)[C@H](SCCCN2CCOCC2)C(=O)N(C)[C@@H](C(C)CC)C(=O)N[C@@H](C(C)C)C(=O)N(C)[C@@H](CC(C)C)C(=O)N[C@@H](C)C(=O)N[C@H](C)C(=O)N(C)[C@@H](CC(C)C)C(=O)N(C)[C@@H](CC(C)C)C(=O)N(C)[C@@H](C(C)C)C(=O)N1C (some centres unmarked) (cyclo(A[dA][NMeL][NMeL][NMeV][MeBmt][Abu][X1][NMeIle(3ξ)]V[NMeL]))	
			C/C=C/C[C@@H](C)[C@@H](O)[C@H]1C(=O)N[C@@H](CC)C(=O)N(C)[C@H](CSCCCN2CCOCC2)C(=O)N(C)[C@@H](CC(C)(C)O)C(=O)N[C@@H](C(C)C)C(=O)N(C)[C@@H](CC(C)C)C(=O)N[C@@H](C)C(=O)N[C@H](C)C(=O)N(C)[C@@H](CC(C)C)C(=O)N(C)[C@@H](CC(C)C)C(=O)N(C)[C@@H](C(C)C)C(=O)N1C	Epimerization % after 168 hours [2]: 0%
~4	~10%	~16	C/C=C/C[C@@H](C)[C@@H](O)[C@H]1C(=O)N[C@@H](CC)C(=O)N(C)[C@H](SCCN(CC)CC)C(=O)N(C)[C@@H](C(C)CC)C(=O)N[C@@H](C(C)C)C(=O)N(C)[C@@H](CC(C)C)C(=O)N[C@@H](C)C(=O)N[C@H](C)C(=O)N(C)[C@@H](CC(C)C)C(=O)N(C)[C@@H](CC(C)C)C(=O)N(C)[C@@H](C(C)C)C(=O)N1C (some centres unmarked) (cyclo(A[dA][NMeL][NMeL][NMeV][MeBmt][Abu][X6][NMeIle(3ξ)]V[NMeL]))	
